Key:
[1] = biological target: T1, P-glycoprotein (P-gp) (Homo sapiens, UniProt P08183)
Protocol: Rho123 (10 μM) was added to the culture solution containing the culture embedded in Matrigel after the culturing prepared in Experimental Example 1, and the incorporation of the Rho123 into the inner cavity of the culture was carried out at 37° C. for 30 min in the presence of 5% by volume of CO2.
The polymerized Matrigel was degraded by pipetting and enzymatic treatment (Corning (registered trade name) Cell Recovery Solution) in order to measure the amount of the incorporated Rho123.

[2] = biological target: T1, P-glycoprotein (P-gp); assay: Rho123 excretion of present evaluation model (sac-like material, suspension culture), fluorescence microscopy; assay type: in vitro ADME; set-up: In the obtained culture, an inner cavity due to the membrane of the human hepatocyte-like cell was formed; host or cells: human hepatocyte-like cells (organoid or sac-like material) cultured from human primary hepatocytes; conditions: Rho123 10 μM, 37°C, 30 min, 5% CO2; sac-like material of human hepatocyte-like cells, 2% by volume Matrigel suspension culture; FIG. 2A/2B
Protocol: (§1) The culture of human liver cells after the subculturing in Experimental Example 1, the culture medium in Table 1, and 2% by volume of Matrigel with respect to the culture medium were added to a 6-well culture plate (manufactured by Sumitomo Bakelite Co., Ltd., MS-8006R), followed by the suspension culture at 37° ° C. for 3 days in the presence of 5% by volume of CO2 to form a sac-like material.
(§2) In Experimental Example 2, Rho123 (10 μM), which is a substrate for P-glycoprotein (P-gp), was added to the culture solution after the suspension culture. The incorporation of the Rho123 into the inner cavity of the present evaluation model was carried out at 37 °C for 30 min in the presence of 5% by volume of CO2. A culture solution containing the present evaluation model was placed in a low-adsorption 15 mL tube by pipetting, followed by centrifugation.

[3] = biological target: T1, P-glycoprotein (P-gp); assay: Quantification of Rho123 incorporated into inner cavity of present evaluation model by LC/MS; assay type: in vitro ADME; set-up: In the obtained culture, an inner cavity due to the membrane of the human hepatocyte-like cell was formed; host or cells: human hepatocyte-like cells (organoid or sac-like material) cultured from human primary hepatocytes; conditions: Rho123 10 μM in culture solution, 37°C, 30 min
Protocol: as §1, §2
The present evaluation model of Experimental Example 3, into which Rho123 had been incorporated, was mixed with methanol to kill the human hepatocyte-like cells. After mixing, centrifugation was carried out to extract the supernatant. The supernatant was subjected to analysis by a liquid chromatography-mass spectrometer (LC/MS) (manufactured by SHIMADZU CORPORATION, LCMSTM-8040), and from the concentration and amount of the Rho123 incorporated into the inner cavity and the concentration of the Rho123 in the culture solution, the proportion of the present evaluation model transported into the inner cavity was calculated.
• Column: Xbridge C18 3.5 μm, 2.1 mm×50 mm • Column temperature: 40° ° C. • Internal standard substance: Tolbutamine • Elution solvent: A solution (a 0.1% by mass formic acid solution), B solution (acetonitrile) • Gradient conditions: see Table 2 • Runtime: 7 minutes • Flow rate: 0.4 mL/min • Injection volume: 3 μL
• Mode: Positive (*the standard substance is in a negative mode)

[4] = biological target: T2, MRP2 (Homo sapiens, UniProt Q92887); assay: CDFDA excretion of present evaluation model, microscopy; assay type: in vitro ADME; conditions: CDFDA 2 μM, 5 µM, or 10 µM, 37°C, 30 min, 5% CO2; FIG. 5
T2 construct: host or cells: human hepatocyte-like cells (sac-like material) cultured from human primary hepatocytes
T2 sequence (Q92887 whole entry): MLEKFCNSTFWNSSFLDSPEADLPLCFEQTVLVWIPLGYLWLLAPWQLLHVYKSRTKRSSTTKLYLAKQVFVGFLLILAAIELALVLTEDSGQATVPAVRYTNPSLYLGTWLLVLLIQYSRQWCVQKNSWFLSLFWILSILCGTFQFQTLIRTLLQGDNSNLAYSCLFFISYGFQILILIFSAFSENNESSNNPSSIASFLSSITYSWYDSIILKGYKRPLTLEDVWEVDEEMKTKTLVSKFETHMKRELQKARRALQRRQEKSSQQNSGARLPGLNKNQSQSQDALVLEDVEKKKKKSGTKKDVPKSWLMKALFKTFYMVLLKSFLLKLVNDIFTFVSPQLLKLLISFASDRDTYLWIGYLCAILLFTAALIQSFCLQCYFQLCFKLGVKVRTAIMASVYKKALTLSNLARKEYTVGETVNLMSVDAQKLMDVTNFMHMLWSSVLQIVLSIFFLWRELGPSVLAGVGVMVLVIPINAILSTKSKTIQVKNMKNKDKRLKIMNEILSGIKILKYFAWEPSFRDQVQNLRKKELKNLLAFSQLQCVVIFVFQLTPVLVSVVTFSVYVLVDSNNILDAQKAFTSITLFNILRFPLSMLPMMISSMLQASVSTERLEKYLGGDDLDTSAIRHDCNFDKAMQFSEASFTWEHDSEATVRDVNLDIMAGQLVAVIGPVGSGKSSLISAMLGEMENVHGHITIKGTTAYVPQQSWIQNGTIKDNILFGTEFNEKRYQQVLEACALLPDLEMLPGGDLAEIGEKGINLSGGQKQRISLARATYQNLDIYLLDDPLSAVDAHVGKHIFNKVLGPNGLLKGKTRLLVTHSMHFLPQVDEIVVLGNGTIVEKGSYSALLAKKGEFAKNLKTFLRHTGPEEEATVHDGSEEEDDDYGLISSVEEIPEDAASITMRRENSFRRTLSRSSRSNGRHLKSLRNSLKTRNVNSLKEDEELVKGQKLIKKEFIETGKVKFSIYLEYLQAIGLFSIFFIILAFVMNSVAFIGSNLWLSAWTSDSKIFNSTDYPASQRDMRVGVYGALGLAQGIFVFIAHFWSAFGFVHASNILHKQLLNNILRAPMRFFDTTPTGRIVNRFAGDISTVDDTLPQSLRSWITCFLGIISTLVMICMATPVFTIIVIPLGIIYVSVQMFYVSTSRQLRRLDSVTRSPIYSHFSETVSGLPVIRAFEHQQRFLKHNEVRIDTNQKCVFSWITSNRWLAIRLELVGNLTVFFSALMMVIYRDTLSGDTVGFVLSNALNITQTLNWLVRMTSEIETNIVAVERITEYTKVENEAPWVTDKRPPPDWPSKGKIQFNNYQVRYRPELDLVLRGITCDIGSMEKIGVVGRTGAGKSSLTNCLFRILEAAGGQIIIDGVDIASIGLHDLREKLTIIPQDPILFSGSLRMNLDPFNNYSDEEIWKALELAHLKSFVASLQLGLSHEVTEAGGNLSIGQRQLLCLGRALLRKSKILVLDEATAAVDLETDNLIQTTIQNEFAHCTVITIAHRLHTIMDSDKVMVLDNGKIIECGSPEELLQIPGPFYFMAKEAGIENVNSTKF
Protocol: as §1
as §2, with “2 μM, 5 µM, or 10 µM of carboxydichlorofluorescein diacetate (CDFDA),” for “Rho123 (10 μM),”, “of MRP2,” for “for P-glycoprotein (P-gp),”, “CDFDA” for “Rho123”, “ml” for “mL”

T1 sequence (P08183 whole entry): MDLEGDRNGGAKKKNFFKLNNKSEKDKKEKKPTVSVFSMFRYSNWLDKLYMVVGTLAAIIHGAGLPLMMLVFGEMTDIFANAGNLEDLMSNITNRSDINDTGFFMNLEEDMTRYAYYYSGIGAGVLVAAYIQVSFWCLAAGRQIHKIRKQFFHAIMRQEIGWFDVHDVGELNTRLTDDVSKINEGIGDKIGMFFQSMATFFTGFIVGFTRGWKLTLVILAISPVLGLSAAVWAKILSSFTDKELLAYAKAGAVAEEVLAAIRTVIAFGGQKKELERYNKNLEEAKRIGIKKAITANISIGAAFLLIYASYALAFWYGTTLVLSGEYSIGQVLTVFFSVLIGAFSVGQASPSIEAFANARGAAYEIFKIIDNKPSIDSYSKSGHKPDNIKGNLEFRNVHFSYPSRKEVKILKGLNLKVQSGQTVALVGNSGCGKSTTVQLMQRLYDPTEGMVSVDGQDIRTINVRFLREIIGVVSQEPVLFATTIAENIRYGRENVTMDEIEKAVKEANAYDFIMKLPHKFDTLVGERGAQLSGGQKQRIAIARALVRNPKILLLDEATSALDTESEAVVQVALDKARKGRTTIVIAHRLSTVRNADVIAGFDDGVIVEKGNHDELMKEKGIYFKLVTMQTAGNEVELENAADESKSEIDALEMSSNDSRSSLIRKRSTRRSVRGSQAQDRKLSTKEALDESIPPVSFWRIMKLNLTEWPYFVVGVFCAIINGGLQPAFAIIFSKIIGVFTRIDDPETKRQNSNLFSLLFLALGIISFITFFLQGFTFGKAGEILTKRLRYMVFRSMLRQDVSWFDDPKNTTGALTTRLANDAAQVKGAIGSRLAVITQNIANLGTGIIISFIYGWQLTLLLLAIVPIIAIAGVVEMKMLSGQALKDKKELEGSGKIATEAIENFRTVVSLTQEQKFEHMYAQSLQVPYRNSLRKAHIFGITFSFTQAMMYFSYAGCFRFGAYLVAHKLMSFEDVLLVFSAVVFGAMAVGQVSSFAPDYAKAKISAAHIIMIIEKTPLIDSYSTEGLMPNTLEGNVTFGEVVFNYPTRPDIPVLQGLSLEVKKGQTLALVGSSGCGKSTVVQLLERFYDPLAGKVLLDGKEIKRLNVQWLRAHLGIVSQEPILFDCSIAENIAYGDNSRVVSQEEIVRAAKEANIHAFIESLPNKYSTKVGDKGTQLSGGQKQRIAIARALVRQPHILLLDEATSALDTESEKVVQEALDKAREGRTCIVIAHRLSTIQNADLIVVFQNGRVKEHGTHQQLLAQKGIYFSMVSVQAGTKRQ

Row | Proportion transported into present evaluation model ([3]; calculated from concentration and amount in inner cavity and concentration in culture solution) [%] | Amount of Rho123 in present evaluation model ([3]; methanol extraction, LC/MS) [nmol] | Concentration of Rho123 in present evaluation model ([3]; methanol extraction, LC/MS) [nM] | Molecule | Incorporation into the inner cavity of the culture (microscopy) [1] | Excretion into the inner cavity of the present evaluation model (microscopy) [2] | Excretion into the inner cavity of the present evaluation model (microscopy) [4]
1 | 1.23 | 0.123 | 615.4 | COC(=O)c1ccccc1-c1c2ccc(=N)cc-2oc2cc(N)ccc12.Cl [Rho123] | incorporation of Rho123 into the inner cavity of the culture was confirmed | excreted into the inner cavity of the present evaluation model | 
2 |  |  |  | carboxydichlorofluorescein diacetate [CDFDA] |  |  | excreted into the inner cavity of the present evaluation model

Reference: patent US20240183843A1, “METHOD FOR EVALUATING EXCRETION OF SUBSTANCE OF INTEREST BY HUMAN HEPATOCYTE-LIKE CELL” (JSR Corporation, priority 2020, published 2024)
